We go through seven molecules from publication PMC10504751, “Chalcone/1,3,4-Oxadiazole/Benzimidazole hybrids as novel anti-proliferative agents inducing apoptosis and inhibiting EGFR & BRAFV^600E” (BMC Chemistry, 2023).

Several values for one entry are separate records, joined by “and”; a condition that tells them apart may be missing. Equal values may be shown once.

The test system of one data set is A-549. Nature of the data set: Propidium iodide anti-proliferative assay. The class given is cell-based. The following applies: Homo sapiens, A549; 48 h incubation; read-out: IC50 ± SEM A-549. As to the method:
(§1) The propidium iodide (PI) tests^31, 32 were further used for assessment of the IC50 of all synthesized compounds and compared to Doxorubicin as a positive control against four cancer cell lines; pancreatic cancer cell line (Panc-1), epithelial line cancer cell (A-549), breast cancer cell line (MCF-7), and colon cancer cell line (HT-29).
(§2) Using the propidium iodide fluorescence assay with doxorubicin as the reference drug, IC50 of the 24 compounds 7a-x, was carried out according to a previously reported procedure^31, 32 against a panel of four human cancer cell lines; epithelial cancer cell line (A-549), breast cancer cell line (MCF-7), colon cancer cell line (HT-29) and pancreas cancer cell line (Panc-1). Compounds 7a-x were incubated with cancer cells for 2 days at different concentrations. See Appendix A.
(§3) To explore the antiproliferative potential of compounds propidium iodide fluorescence assay was performed using different cell lines (melanoma cancer cell line LOX-IMVI, pancreatic cancer cell line (Panc-1), epithelial line cancer cell (A-549), breast cancer cell line (MCF-7), and colon cancer cell line (HT-29). To calculate the total nuclear DNA, a fluorescent dye (propidium iodide, PI) is used which can attach to the DNA,^9,^10 thus offering a quick and precise technique. PI cannot pass through the cell membrane and its signal intensity can be considered as directly proportional to the quantity of cellular DNA. Cells whose cell membranes are damaged or have changed permeability are counted as dead ones. The assay was performed by seeding the cells of different cancer cell lines at a density of 3000-7500 cells/well (in 200µl medium) in culture plates followed by incubation for 24h at 37 °C in humidified 5% CO2/95% air atmospheric conditions. The medium was removed; the compounds were added to the plates at 10 µM concentrations (in 0.1% DMSO) in triplicates, followed by incubation for 48 h. DMSO (0.1%) was used as control. After incubation, medium was removed followed by the addition of PI (25 µl, 50µg/mL in water/medium) to each well of the plates. At -80 °C, the plates were allowed to freeze for 24 h, followed by thawing at 25 °C. A fluorometer (Polar-Star BMG Tech) was used to record the readings at excitation and emission wavelengths of 530 and 620 nm for each well. The percentage cytotoxicity of compounds was calculated using the following formula:
(§4) Where ATC= Absorbance of treated cells and AC= Absorbance of control. […]

Another data set has as its system HT-29. Put plainly: Propidium iodide anti-proliferative assay. The class given is cell-based. The settings on record: Homo sapiens, 48 h incubation, read-out: IC50 ± SEM HT-29. The procedure:
as §1, §2, §3, §4

A further data set concerns MCF-7. Nature of the data set: Propidium iodide anti-proliferative assay. The settings on record: Homo sapiens, MCF7; 48 h incubation; read-out: IC50 ± SEM MCF-7. The class given is cell-based. As to the method: as §1, §2, §3, §4
The test system of a further data set is Panc-1. Nature of the data set: Propidium iodide anti-proliferative assay. The following applies: Homo sapiens, 48 h incubation, read-out: IC50 ± SEM Panc-1. Type of data set: cell-based. As to the method: as §1, §2, §3, §4
Data set [1] in a line: MTT cell viability assay in normal cells. The class given is cell-based. The settings on record: human, MCF-10A normal mammary epithelial cells. As to the method: To check the safety of prepared compounds and evaluate their selectivity towards tumor cells over normal ones, the toxicity of compounds 7a-x were evaluated by 3-(4,5-Dimethylthiazole-2-yl)-2,5-diphenyltetrazol (MTT) assay on the normal human mammary epithelial cell line (MCF-10 A). The human mammary epithelial cell lines were incubated for four days with a concentration of 50 µM of compounds 7a-x.
MTT assay was done to determine the effect of the synthesized compounds on the viability of mammary epithelial cells (MCF-10 A). Compounds 7a-x were incubated with MCF-10 A cells for 4 days at 50 µM concentration, and the viability of cells was determined. See Appendix A.
MTT assay was carried out to study the effect of compounds on mammary epithelial cells (MCF-10A).^7, ^8 The medium in which cells were propagated contained Dulbecco's modified Eagle's medium (DMEM)/ Ham's F-12 medium (1:1) supplemented with epidermal growth factor (20 ng/mL), hydrocortisone (500 ng/mL), insulin (10 μg/mL), 2 mM glutamine and 10% foetal calf serum. After every 2-3 days, the cells were passaged using trypsin ethylenediamine tetra acetic acid (EDTA). The cells were seeded at a density of 10^4 cells mL^-1 in flat-bottomed culture plates containing 96 wells each. After 24 h, medium was removed from the plates and the compounds in (in 0.1% DMSO) were added (in 200 μL medium to yield a final concentration of 0.1% v/v) to the wells of plates. A single compound was designated with four wells followed by incubation of plates for 96h at 37°C. After incubation, medium was removed completely from the plates followed by addition of MTT (0.4 mg/mL in medium) to each well and subsequent incubation of plates for 3h. MTT (along with the medium) was removed and DMSO (150μL) was added to each well of the culture plates, followed by vortexing and subsequent measurement of absorbance (at 540 nm) using microplate reader.

The test system of data set [2] is Caspase-8 in MCF-7 breast cancer cells. Nature of the data set: Caspase-8 assay. The class given is cell-based, human.
In data set [3] the test system is Caspase-9 in MCF-7 breast cancer cells. Nature of the data set: Caspase-9 assay. Type of data set: cell-based, human.
Data set [4] has as its system Cytochrome C in MCF-7 human breast cancer cell line. Nature of the data set: Cytochrome C assay. The class given is cell-based.
Data set [5] concerns Panc-1, A-549, MCF-7 and HT-29. Put plainly: Propidium iodide anti-proliferative assay, four cell lines together. The class given is cell-based. The following applies: Homo sapiens; range over Panc-1, A-549, MCF-7, HT-29; read-out: IC50 range on the four tested cell lines. The procedure: as §1, §2
as §3, with “The medium was removed; the compounds were added to the plates at 10 µM concentrations (in 0.1% DMSO) in triplicates, followed by incubation for 48 h. DMSO (0.1%) was used as control. After incubation, medium was removed followed by the addition of PI (25 µl, 50µg/mL in water/medium) to each well of the plates. At -80 °C, the plates were allowed to freeze for 24 h, followed by thawing at 25 °C.” left out
as §4

The test system of data set [6] is Caspase-3 in MCF-7 breast cancer cells. Put plainly: Caspase-3 assay.
Procedure: All reagents were allowed to reach room temperature before use. All liquid reagents were gently mixed before use. The number of 8-well strips needed for the assay was determined. These were inserted into the frame(s) for current use. A total of 100 µL of the Standard Diluent Buffer was added to the zero standard wells. Well(s) reserved for chromogen blank were left empty. A total of 100 µL of standards and controls or diluted samples was added to the appropriate microtiter wells. The sample dilution chosen was optimized for each experimental system. The side of the plate was gently tapped on to
mix. Wells were covered with a plate cover and incubated for 2 h at room temperature. The solution was thoroughly aspirated or decanted from the wells and the liquid was discarded; wells were washed four times. […] The side of the plate was gently tapped on to mix. The plate was covered with a plate cover and incubated for 1h at room temperature. The solution was thoroughly aspirated or decanted from wells and the liquid was discarded; wells were washed four times. A total of 100 µL Anti-Rabbit IgG HRP Working Solution was added to each well except the chromogen blank(s). The working dilution was prepared as described in Preparing IgG HRP. Wells were covered with the plate cover and incubated for 30 min at room temperature. The solution was thoroughly aspirated or decanted from the wells and the liquid was discarded. Wells were washed four times. A total of 100 µL of Stabilized Chromogen was added to each well. The liquid in the wells began to turn blue. It was incubated for 30 min at room temperature and in the dark. The incubation time for chromogen substrate was determined by the microtiter plate reader used. Many plate readers have the capacity to record a maximum optical density (O.D.) of 2.0. The O.D. values were monitored, and the substrate reaction was stopped before the O.D. of the positive wells exceeds the limits of the instrument. The O.D. values at 450 nm could only be read after the Stop Solution had been added to each well. A total of 100 µL of Stop Solution was added to each well. The side of the plate was gently tapped to mix. The solution in the wells changed from blue to yellow. The absorbance of each well was read at 450 nm, having blanked the plate reader against a chromogen blank composed of 100 µL each of Stabilized Chromogen and Stop Solution. The plate was read within 2 h after adding the Stop Solution. A curve fitting software was used to generate the standard curve.
The concentrations for unknown samples and controls from the standard curve were read. Value(s) obtained for sample(s) by the appropriate dilution factor were multiplied to correct for the dilution in step 3.
In the next data set the test system is BAX in MCF-7. Put plainly: BAX activation assay.
In another data set the test system is Bcl-2 in MCF-7. Nature of the data set: Bcl-2 inhibition assay.

Procedure for BAX in MCF-7: All reagents were brought to room temperature for at least 30 min before opening (except the human BAX-α Standard). Human BAX-α Standard solution was not be left at room temperature for more than 10 min. Duplicates of all standards, controls, and samples were run. The Assay Layout Sheet was used to determine the number of wells to be used, and any remaining wells were put with the desiccant back into the pouch, and the ziplock was sealed. Unused wells were stored at 4 ◦C. A total of 100 µL of Assay Buffer was pipetted into the S0 (0 pg/mL standard) wells. A total of 100 µL of Standards #1 through #6 was pipetted into the appropriate wells. A total of 100 µL of the samples was pipetted into the appropriate wells. The plate was gently tapped to mix the contents. The plate was sealed and incubated at room temperature on a plate shaker for 1 h at ~500 rpm. The contents of the wells were emptied and washed by adding 400 µL of wash solution to every well. The wash was repeated four more times for a total of five washes. After the final wash, the wells were emptied or aspirated and firmly the plate on a lint-free paper towel was tapped to remove any remaining wash buffer. A total of 100 µL of yellow antibody was pipetted into each well, except the Blank. The plate was sealed and incubated at room temperature on a plate shaker for 1 h at ~500 rpm. The contents of the wells were emptied and washed by adding 400 µL of wash solution to every well. The wash was repeated four more times for a total of five washes. After the final wash, the wells were emptied or aspirated, and the plate was firmly tapped on a lint-free paper towel to remove any remaining wash buffer. A total of 100 µL of blue Conjugate was added to each well, except the Blank. The plate was sealed and incubated at room temperature on a plate shaker for 30 min at ~500 rpm. The contents of the wells were emptied and washed by adding 400 µL of wash solution to every well. The wash was repeated four more times for a total of five washes. After the final wash, the wells were emptied or aspirated and the plate was firmly tapped on a lint-free paper towel to remove any remaining wash buffer. A total of 100 µL of Substrate Solution was pipetted into each well. It was incubated for 30 min at room temperature on a plate shaker at ~500 rpm. A total of 100 µL Stop Solution was pipetted into to each well. The plate reader was blanked against the Blank wells, and the optical density was read at 450 nm. The average net optical density (OD) bound for each standard and sample was calculated by subtracting the average Blank OD from the average OD for each standard and sample. Using linear graph paper, the Average Net OD for each standard versus BAX concentration in each standard were plotted. A straight line was approximated through the points. The concentration of BAX in the unknowns could be determined by interpolation.
Procedure for Bcl-2 in MCF-7: All reagents were thoroughly mixed without foaming before use. The microwells were washed twice with approximately 300 µL Wash Buffer per well with the thorough aspiration of microwell contents between washes. Care was taken not to scratch the surface of the microwells. After the last wash, the wells were emptied and microwell strips were tapped on an absorbent pad or paper towel to remove excess Wash Buffer. The microwell strips were used immediately after washing or placed upside down on a wet absorbent paper for not longer than 15 min. Wells were not allowed to dry. A total of 100 µL of Sample Diluent was added in duplicate to all standard wells and the blank wells. Standard (1:2 dilution) in duplicate was prepared ranging from 32 to 0.5 ng/mL. A total of 100 µL of Sample Diluent, in duplicate, was added to the blank wells. A total of 80 µL of Sample Diluent, in duplicate, was added to the sample wells. A total of 20 µL of each sample, in duplicate, was added to the designated wells. A total of 50 µL of diluted biotin was added, conjugated to all wells, including the blank wells. It was covered with a plate cover and incubated at room temperature on a microplate shaker at 100 rpm for 2 h. The plate cover was removed and the wells were emptied. Microwell strips were washed times as described in Step 2. A total of 100 µL of diluted Streptavidin-HRP was added to all wells, including the blank wells. It was covered with a plate cover and incubated at room temperature on a microplate shaker at 100 rpm for 1 h. The plate cover was removed and the wells were emptied. Microwell strips were washed three times, as described in Step 2. A total of 100 µL of mixed TMB Substrate Solution was pipetted into all wells, including the blanks. The microwell strips were incubated at room temperature (18 ◦C to 25 ◦C) for about 15 min, on a rotator set at 100 rpm. Direct exposure to intense light was avoided. The point at which the substrate reaction is stopped was determined by the ELISA reader. Many ELISA readers record absorbance only up to 2.0 O.D. Therefore, the color development within individual microwells was watched by the person running the assay, and the substrate reaction was stopped before positive wells were no longer properly detectable. The enzyme reaction was stopped by quickly pipetting 100 µL of Stop Solution into each well, including the blank wells. It was important that the Stop Solution was spread quickly and uniformly throughout the microwells to inactivate the enzyme completely. Results were read immediately after the Stop Solution was added or within one hour if the microwell strips were stored at 2–8 ◦C in the dark. The absorbance of each microwell was read on a spectrophotometer using 450 nm as the primary wavelength.

Consider `COc1ccc(/C=C/C(=O)c2ccc(NC(=O)CSc3nnc(-c4ccc5[nH]c(-c6ccc(Cl)cc6)nc5c4)o3)cc2)cc1OC` [Compound 7i, 2-{5-[2-(4-Chlorophenyl)-1 H-benzo[d]imidazol-5-yl]-1,3,4-oxadiazol-2-ylthio}-N-{4-[(E)-3-(3,4-dimethoxyphenyl)acryloyl]phenyl}acetamide], for which the melting point is 208 to 210 °C. Further, the IC50 in the data set with A-549 was found to be 9.7 ± 1.1 µM. Also, in the data set with HT-29, the IC50 is 10.2 ± 1.3 µM. For the same molecule, the concentration for half-maximal inhibition (IC50) in the data set on MCF-7 is 9.2 ± 1 µM. Also, the IC50 in the data set with Panc-1 amounted to 10.2 ± 1.2 µM. In addition, the viability at 96 h, 50 µM in data set [1] was 84%.

Consider `COc1cc(/C=C/C(=O)c2ccc(NC(=O)CSc3nnc(-c4ccc5[nH]c(-c6ccc(Cl)cc6)nc5c4)o3)cc2)cc(OC)c1OC` [Compound 7j, 2-{5-[2-(4-Chlorophenyl)-1 H-benzo[d]imidazol-5-yl]-1,3,4-oxadiazol-2-ylthio}-N-{4-[(E)-3-(3,4,5-trimethoxyphenyl)acryloyl]phenyl}acetamide], for which the melting point was in the range of 223 to 225 °C. In the data set with A-549, the IC50 was found to be 9.95 ± 1.1 µM. Further, the IC50 with HT-29 is 10.7 ± 1.1 µM. In addition, in the data set on MCF-7, the IC50 was 9.4 ± 1.2 µM. In the data set on Panc-1, the IC50 amounted to 10.3 ± 1.2 µM. In addition, in [1], the viability at 96 h, 50 µM is 89%.

As to `COc1ccc(/C=C/C(=O)c2ccc(NC(=O)CSc3nnc(-c4ccc5[nH]c(-c6ccc(OC)c(OC)c6)nc5c4)o3)cc2)cc1OC` [Compound 7s, 2-{5-[2-(3,4-Dimethoxyphenyl)-1 H-benzo[d]imidazol-5-yl]-1,3,4-oxadiazol-2-ylthio}-N-{4-[(E)-3-(3,4-dimethoxyphenyl)acryloyl]phenyl}acetamide], the melting point was 190 to 193 °C. The 50% inhibitory concentration (IC50) in the data set on A-549 came out at 3.8 ± 0.6 µM. Moreover, the 50% inhibitory concentration (IC50) with HT-29 came out at 4.55 ± 0.6 µM. For the same molecule, the IC50 with MCF-7 stood at 3.15 ± 0.5 µM. For the same molecule, the 50% inhibitory concentration (IC50) with Panc-1 came out at 4.3 ± 0.6 µM. For the same molecule, in data set [1], the viability at 96 h, 50 µM was 87%.

For `COc1ccc(-c2nc3cc(-c4nnc(SCC(=O)Nc5ccc(C(=O)/C=C/c6cc(OC)c(OC)c(OC)c6)cc5)o4)ccc3[nH]2)cc1OC` [Compound 7t, 2-{5-[2-(3,4-Dimethoxyphenyl)-1 H-benzo[d]imidazol-5-yl]-1,3,4-oxadiazol-2-ylthio}-N-{4-[(E)-3-(3,4,5-trimethoxyphenyl)acryloyl]phenyl}acetamide], the melting point is 190 to 193 °C. The half-maximal inhibitory concentration (IC50) in the data set on A-549 worked out at 10.6 ± 1.1 µM. Also, the IC50 in the data set on HT-29 was 10.8 ± 1.2 µM. The half-inhibitory concentration (IC50) with MCF-7 is 10.1 ± 1 µM. In the data set on Panc-1, the IC50 was 10.9 ± 1.2 µM. Moreover, in [1], the viability at 96 h, 50 µM was 88%.

`COc1ccc(/C=C/C(=O)c2ccc(NC(=O)CSc3nnc(-c4ccc5[nH]c(-c6cc(OC)c(OC)c(OC)c6)nc5c4)o3)cc2)cc1` [Compound 7w, 2-{5-[2-(3,4,5-Trimethoxyphenyl)-1 H-benzo[d]imidazol-5-yl]-1,3,4-oxadiazol-2-ylthio}-N-{4-[(E)-3-(4-methoxyphenyl)acryloyl]phenyl}acetamide] showed a melting point of 200 to 204 °C. Besides, the concentration for half-maximal inhibition (IC50) in the data set with A-549 turned out to be 10.9 ± 1.1 µM. In addition, the 50% inhibitory concentration (IC50) in the data set with HT-29 worked out at 11.2 ± 1.3 µM. In addition, the IC50 in the data set with MCF-7 turned out to be 10.2 ± 1.2 µM. The half-maximal inhibitory concentration (IC50) in the data set on Panc-1 was 11.2 ± 1.2 µM. In addition, in data set [1], the viability at 96 h, 50 µM stood at 91%.

The molecule `COc1ccc(/C=C/C(=O)c2ccc(NC(=O)CSc3nnc(-c4ccc5[nH]c(-c6cc(OC)c(OC)c(OC)c6)nc5c4)o3)cc2)cc1OC` [Compound 7x, 2-{5-[2-(3,4,5-Trimethoxyphenyl)-1 H-benzo[d]imidazol-5-yl]-1,3,4-oxadiazol-2-ylthio}-N-{4-[(E)-3-(3,4-dimethoxyphenyl)acryloyl]phenyl}acetamide] came in with a melting point of 212 to 215 °C. For the same molecule, the IC50 in the data set on A-549 was 11.5 ± 1.2 µM. Besides, the 50% inhibitory concentration (IC50) in the data set with HT-29 was 12.5 ± 1.5 µM. Moreover, the IC50 in the data set on MCF-7 was 10.8 ± 1.1 µM. In addition, in the data set on Panc-1, the IC50 turned out to be 11.8 ± 1.2 µM. The viability at 96 h, 50 µM in data set [1] was determined as 85%.

`COc1cccc2c1C(=O)c1c(O)c3c(c(O)c1C2=O)C[C@@](O)(C(=O)CO)C[C@@H]3O[C@H]1C[C@H](N)[C@H](O)[C@H](C)O1` [Doxorubicin, reference compound]: the half-maximal inhibitory concentration (IC50) was 1.21 ± 0.1 µM in the data set with A-549; 1.01 ± 0.1 µM with HT-29; 0.9 ± 0.1 µM in the data set on MCF-7; 1.41 ± 0.1 µM in the data set with Panc-1; 0.9 to 1.41 µM in [5]. The “Caspase-8 Fold change” value in data set [2] (MCF-7, vs untreated control) came out at 10.00 fold. In addition, the “Caspase-8 Conc” value in data set [2] (MCF-7 breast cancer cells) is given as 1.750 ng/mL. Also, in data set [3] (MCF-7, vs untreated control), the “Caspase-9 Fold change” value is listed as 17.40 fold. Further, in data set [3] (MCF-7 breast cancer cells), the “Caspase-9 Conc” value was determined as 16.200 ng/mL. In [4] (MCF-7, vs untreated control), the “Cytochrome C Fold change” value is reported as 13.10 fold. Also, the “Cytochrome C Conc” value in data set [4] (MCF-7 breast cancer cells) came to 0.604 ng/mL. Further, in data set [6] (MCF-7, vs untreated control), the “Caspase-3 Fold change” value came to 7.65 fold. The “Caspase-3 Conc” value in data set [6] (MCF-7 breast cancer cells) was 503.200 ± 4.20 pg/mL. In addition, in the data set on BAX in MCF-7 (MCF-7), the “BAX Conc” value is 276 pg/mL and 276.500 pg/mL. For the same molecule, the “BAX Fold change” value with BAX in MCF-7 (MCF-7, vs untreated control) is recorded as 32.5 fold. Further, the “Bcl-2 Conc” value in the data set on Bcl-2 in MCF-7 (MCF-7) was 0.98 ng/mL and 0.985 ng/mL. Further, the “Bcl-2 Fold reduction” value in the data set with Bcl-2 in MCF-7 (MCF-7, vs untreated control) is on record as 5.1 fold.
